Earlier results, collected in patent US8097726B2, “Huperzine a compound for treatment of alzheimer's disease” (priority 2006, dated 2012).

Columns and labels:
[1] = rapidly eliminated from the kidneys
[2] = administered orally at 0.2 mg twice a day for 8 weeks; AD patients

SMILES: C/C=C1\[C@H]2C=C(C)C[C@]1(N)c1ccc(=O)[nH]c1C2 [huperzine A]
- half-life in plasma [1]: 4 to 5 h
- patients with significant improvement in memory, cognition and behavior [2]: 58%
